In ChEMBL document CHEMBL4002618, “Anticomplement triterpenoids from the roots of Ilex asprella” (2017):
Active and inactive are the calls of the source. No cut-off for these calls is given here.

Key:
[1] = tested on: Erythrocyte; assay: Anticomplement activity in sheep erythrocytes assessed as concentration required for 50% hemolytic inhibition by classic pathway preincubated for 10 mins with guinea pig serum followed by erythrocyte addition measured after 30 mins by spectrophotometer; format: functional
[2] = tested on: Erythrocyte; assay: Anticomplement activity in New Zealand White rabbit erythrocytes assessed as concentration required for 50% hemolytic inhibition by alternative pathway preincubated for 10 mins with normal human serum followed by erythrocyte addition measured after 30 mins by spectrophotometer; format: functional
[3] = tested on: Erythrocyte; assay: Anticomplement activity in sheep erythrocytes assessed as inhibition of hemolysis by classical pathway by measuring hemolysis after 30 mins of compound treatment in normal human serum with C3-depleted sera relative to control; format: functional, Ovis aries; parameters: scale not given: the % may be the effect or the level left
[4] = tested on: Erythrocyte; assay: Anticomplement activity in sheep erythrocytes assessed as inhibition of hemolysis by classical pathway by measuring hemolysis after 30 mins of compound treatment in normal human serum with C4-depleted sera relative to control; format: functional, Ovis aries; parameters: scale not given: the % may be the effect or the level left
[5] = tested on: Erythrocyte; assay: Anticomplement activity in sheep erythrocytes assessed as inhibition of hemolysis by classical pathway by measuring hemolysis after 30 mins of compound treatment in normal human serum with C9-depleted sera relative to control; format: functional, Ovis aries; parameters: scale not given: the % may be the effect or the level left
[6] = tested on: Erythrocyte; assay: Anticomplement activity in sheep erythrocytes assessed as inhibition of hemolysis by classical pathway after 30 mins of compound treatment in normal human serum with C1q-depleted sera; format: functional, cell-based; conditions: Ovis aries
[7] = tested on: Erythrocyte; assay: Anticomplement activity in sheep erythrocytes assessed as inhibition of hemolysis by classical pathway after 30 mins of compound treatment in normal human serum with C2-depleted sera; format: functional, cell-based; conditions: Ovis aries
[8] = tested on: Erythrocyte; assay: Anticomplement activity in sheep erythrocytes assessed as inhibition of hemolysis by classical pathway after 30 mins of compound treatment in normal human serum with C5-depleted sera; format: functional, cell-based; conditions: Ovis aries

Compound	Activity ([1]; Ovis aries)	Activity ([2]; Oryctolagus cuniculus)	Activity [1] [mg/mL]	Activity [2] [mg/mL]	also measured
C[C@H]1CC[C@]2(C(=O)O[C@@H]3O[C@H](CO)[C@@H](O)[C@H](O)[C@H]3O)CC[C@]3(C)C(=CC[C@@H]4[C@@]5(C)CC[C@H](O[C@@H]6OC[C@@H](O)[C@H](O)[C@H]6O)C(C)(C)[C@@H]5CC[C@]43C)[C@@H]2[C@]1(C)O	inactive	inactive			
CC(=O)O[C@H]1[C@H](O[C@H]2CC[C@]3(C)[C@H]4CC=C5[C@H]6[C@](C(=O)O[C@@H]7O[C@H](CO)[C@@H](O)[C@H](O)[C@H]7O)(CC[C@@H](C)[C@@]6(C)O)CC[C@@]5(C)[C@]4(C)CC[C@H]3C2(C)C)OC[C@H](O)[C@@H]1O	inactive	inactive			
CC1(C)CC[C@]2(C(=O)O)CC[C@]3(C)C(=CC[C@@H]4[C@@]5(C)CC[C@H](O[C@@H]6OC[C@H](O)[C@H](O)[C@H]6O)C(C)(C)[C@@H]5CC[C@]43C)[C@@H]2[C@@H]1O	inactive	inactive			
CC1=C2[C@H](O)C[C@]3(C)[C@H]([C@@H]4O[C@@H]4[C@]45OC(=O)[C@@]6(CCC(C)(C)C[C@H]64)CC[C@]53C)[C@@]2(C)C=C(O)C1=O			0.38	0.944	
COC(=O)[C@]12CCC(C)(C)C[C@H]1C1=CC[C@@H]3[C@@]4(C)CC[C@H](O)C(C)(C)[C@@H]4CC[C@@]3(C)[C@]1(COC(=O)/C=C/c1ccc(O)cc1)CC2			0.094	0.444	Activity [3]: <18.3%; Activity [4]: <18.3%; Activity [5]: <18.3%; Activity [6]: inactive; Activity [7]: inactive; Activity [8]: inactive
COC(=O)[C@]12CC[C@@H](C)[C@@](C)(O)[C@H]1C1=CC[C@@H]3[C@@]4(C)CC[C@H](O)C(C)(C)[C@@H]4CC[C@@]3(C)[C@]1(COC(=O)/C=C/c1ccc(O)c(OC)c1)CC2			0.131	0.319	
C=C1[C@@H](O)[C@H](O)C[C@]2(C)[C@H]3[C@@H]4O[C@@H]4[C@]45OC(=O)[C@@]6(CC[C@@H](C)[C@H](C)[C@H]64)CC[C@@]5(C)[C@]3(C)CC[C@@H]12 [ULMOIDOL]			0.429	0.794	
COC(=O)[C@H]1O[C@@H](O[C@H]2CC[C@]3(C)[C@H]4CC=C5[C@H]6[C@](C(=O)O)(CC[C@@H](C)[C@@]6(C)O)CC[C@@]5(C)[C@]4(C)CC[C@H]3C2(C)C)[C@H](O)[C@@H](O)[C@@H]1O	inactive	inactive			
CC1=C2[C@H](O)C[C@]3(C)[C@H]([C@@H]4O[C@@H]4[C@]45OC(=O)[C@@]6(CC[C@@H](C)[C@H](C)[C@H]64)CC[C@]53C)[C@@]2(C)C=C(O)C1=O			0.505	0.774	
CC(=O)O[C@H]1CC[C@]2(C)[C@H]3CC=C4[C@@H]5[C@@H](C)[C@H](C)CC[C@]5(CO)CC[C@@]4(C)[C@]3(C)CC[C@H]2C1(C)C		inactive	0.46		
C=C1CC[C@@]23CC[C@]4(C)[C@@](OC2=O)([C@@H]3[C@H]1C)[C@H]1O[C@H]1[C@@H]1[C@@]2(C)C=C(O)C(=O)C(C)=C2[C@H](O)C[C@]14C			0.236	0.656	
C[C@H]1CC[C@]2(C(=O)O)CC[C@]3(C)C(=CC[C@@H]4[C@@]5(C)CC[C@H](O)C(C)(C)[C@@H]5CC[C@]43C)[C@@H]2[C@]1(C)O			0.237	0.579	
C[C@@H]1CC[C@]2(C(=O)O)CC[C@]3(C)C(=CC[C@@H]4[C@@]5(C)CC[C@H](O)[C@@](C)(CO)[C@@H]5CC[C@]43C)[C@@H]2[C@]1(C)O [ROTUNDIC ACID]			0.19	0.341	
COC(=O)[C@H]1O[C@@H](O[C@H]2CC[C@@]3(C)[C@@H](CC[C@]4(C)[C@@H]3CC=C3[C@H]5[C@](C(=O)O)(CC[C@@H](C)[C@@]5(C)O)CC[C@]34C)[C@]2(C)CO)[C@H](O)[C@@H](O)[C@@H]1O	inactive	inactive			
C[C@@H]1CC[C@]2(C(=O)O)CC[C@]3(C)C(=CC[C@@H]4[C@@]5(C)CC[C@H](O)C(C)(C)[C@@H]5CC[C@]43C)[C@@H]2[C@]1(C)O [POMOLIC ACID]			0.101	0.157	
COC(=O)[C@]12CC[C@@H](C)[C@H](C)[C@H]1C1=CC[C@@H]3[C@@]4(C)CC[C@H](O)C(C)(C)[C@@H]4CC[C@@]3(C)[C@]1(COC(=O)/C=C/c1ccc(O)c(O)c1)CC2			0.058	0.08	Activity [3]: <18.3%; Activity [4]: <18.3%; Activity [5]: <18.3%; Activity [6]: inactive; Activity [7]: inactive; Activity [8]: inactive

Compound	Activity ([1]; Ovis aries)	Activity ([2]; Oryctolagus cuniculus)	Activity [1] [mg/mL]	Activity [2] [mg/mL]	also measured
COC(=O)[C@H]1O[C@@H](O[C@H]2CC[C@]3(C)[C@H]4CC=C5[C@@H]6[C@H](O)C(C)(C)CC[C@]6(C(=O)O)CC[C@@]5(C)[C@]4(C)CC[C@H]3C2(C)C)[C@H](O)[C@@H](O)[C@@H]1O	inactive	inactive			
C[C@H]1[C@H](C)CC[C@]2(C(=O)O)CC[C@]3(C)C(=CC[C@@H]4[C@@]5(C)C[C@H](O)[C@H](O)[C@@](C)(CO)[C@@H]5CC[C@]43C)[C@H]12			0.197	0.212	
C[C@@H]1CC[C@]2(C(=O)O[C@@H]3O[C@H](CO)[C@@H](O)[C@H](O)[C@H]3O)CC[C@]3(C)C(=CC[C@@H]4[C@@]5(C)CC[C@H](O)C(C)(C)[C@@H]5CC[C@]43C)[C@@H]2[C@]1(C)O	inactive	inactive			
C[C@H]1CC[C@]2(C(=O)O[C@@H]3O[C@H](CO)[C@@H](O)[C@H](O)[C@H]3O)CC[C@]3(C)C(=CC[C@@H]4[C@@]5(C)CC[C@H](O[C@@H]6OC[C@H](O)[C@H](O)[C@H]6O)C(C)(C)[C@@H]5CC[C@]43C)[C@@H]2[C@]1(C)O	inactive	inactive			
C=C1[C@@H](O)[C@H](O)C[C@]2(C)[C@H]3[C@@H]4O[C@@H]4[C@]45OC(=O)[C@@]6(CCC(C)(C)C[C@H]64)CC[C@@]5(C)[C@]3(C)CC[C@@H]12			0.357	0.781	
COC(=O)[C@H]1O[C@@H](O[C@H]2CC[C@]3(C)[C@H]4CC=C5[C@H]6[C@](C(=O)O)(CC[C@H](C)[C@@]6(C)O)CC[C@@]5(C)[C@]4(C)CC[C@H]3C2(C)C)[C@H](O)[C@@H](O)[C@@H]1O	inactive	inactive			
C[C@H]1[C@H](C)CC[C@]2(C(=O)O)CC[C@]3(C)C(=CC[C@@H]4[C@@]5(C)CC[C@H](O)[C@@](C)(CO)[C@@H]5CC[C@]43C)[C@H]12			0.161	0.678	
C[C@@H]1CC[C@]2(C(=O)O[C@@H]3O[C@H](CO)[C@@H](O)[C@H](O)[C@H]3O)CC[C@]3(C)C(=CC[C@@H]4[C@@]5(C)CC[C@H](O[C@@H]6OC[C@@H](O)[C@H](O)[C@H]6O)C(C)(C)[C@@H]5CC[C@]43C)[C@@H]2[C@]1(C)O	inactive	inactive			
COC(=O)[C@]12CCC(C)(C)C[C@H]1C1=CC[C@@H]3[C@@]4(C)CC[C@H](O)C(C)(C)[C@@H]4CC[C@@]3(C)[C@]1(COC(=O)/C=C/c1ccc(O)c(O)c1)CC2			0.063	0.089	Activity [3]: <18.3%; Activity [4]: <18.3%; Activity [5]: <18.3%; Activity [6]: inactive; Activity [7]: inactive; Activity [8]: inactive
C=C1[C@@H](O)[C@H](O)C[C@]2(C)[C@H]3C=C[C@]45OC(=O)[C@@]6(CC[C@@H](C)[C@H](C)[C@H]64)CC[C@@]5(C)[C@]3(C)CC[C@@H]12 [ILEKUDINOL A]			0.248	0.658	
C[C@H]1[C@H](C)CC[C@]2(C(=O)O)CC[C@]3(C)C(=CC[C@@H]4[C@@]5(C)CC[C@H](O)C(C)(C)[C@@H]5CC[C@]43C)[C@H]12 [URSOLIC ACID]			0.278	0.493	
C[C@H]1[C@H](C)CC[C@@]23CC[C@]4(C)[C@@](OC2=O)([C@H]13)[C@H]1O[C@H]1[C@@H]1[C@@]2(C)CC(=O)[C@H](O)[C@@H](C)[C@@H]2[C@H](O)C[C@]14C			0.592	0.734	
C=C1[C@@H](O)[C@H](O)C[C@]2(C)[C@H]3CC=C4[C@@H]5[C@@H](C)[C@H](C)CC[C@]5(C(=O)O)CC[C@@]4(C)[C@]3(C)CC[C@@H]12 [ILEKUDINOL B]			0.123	0.586	
C[C@@H]1CC[C@]2(C(=O)O)CC[C@]3(C)C(=CC[C@@H]4[C@@]5(C)CC[C@H](O[C@@H]6OC[C@H](O)[C@H](O)[C@H]6O)C(C)(C)[C@@H]5CC[C@]43C)[C@@H]2[C@]1(C)O	inactive	inactive			
C[C@@H]1CC[C@]2(C(=O)O[C@@H]3O[C@H](CO)[C@@H](O)[C@H](O)[C@H]3O)CC[C@]3(C)C(=CC[C@@H]4[C@@]5(C)CC[C@H](O[C@@H]6OC[C@H](O)[C@H](O)[C@H]6O)C(C)(C)[C@@H]5CC[C@]43C)[C@@H]2[C@]1(C)O	inactive	inactive			
